≈ marks a conversion by molar mass, not a printed value. Counter-ions that a name gives are not always drawn.
Columns and labels:
Format in all cases: binding, rabbit
[1] = test system: Antiserum RY778 (anti-phthalic acid ester antibody); experiment: ELISA for diethyl phthalate and cross-reactivity test; details: for Cross-reactivity: relative to diethyl phthalate (calculated as 100%) at B/B0=50, antiserum RY778; for IC50: competitive ELISA, antiserum RY778, biotinylated diethyl phthalate derivative as labeled antigen
Experimental: An ELISA system of the present invention for diethyl phthalate was designed in the following manner.
Diethyl phthalate was diluted as follows. A solution (857 μg/mL) of 12 mg of diethyl phthalate in 15.7% DMSO was 10-fold diluted with PBS buffer to give a standard solution (85.7 μg/ml). Five-fold dilution of the standard solution was repeated to give solutions of various concentrations (17.1 μg/ml, 3.4 μg/ml, 0.69 μg/ml, 0.137 μg/ml, 0.027 μg/ml and 0.005 μg/ml). These solutions were used as diluted standard antigen solutions.
Biotin-Arg-Lys-aminocapronyl-4-amino-diethyl phthalate synthesized in Example 1 (4) was diluted to 2 ng/ml with PBS buffer and used as a labeled antigen solution.
Antiserum RY778 (anti-phthalic acid ester antibody) synthesized in Example 4 was diluted 10,000-fold with PBS buffer (containing 0.1% BSA and 0.1% Tween 20) and used as an antibody solution.
Goat anti-rabbit IgG (Jackson Immuno Research) was diluted 200-fold with 0.1M phosphate buffer (pH8.0), and 100 μl of the diluted IgG was pipetted into each well of a 96-well microtiter plate (Maxi Sorp, Nunc). The plate was allowed to stand at 25° C. for 18 to 20 hours and then the supernatant was removed. Subsequently, 340 μl of Block Ace (Dainippon Pharmaceutical Co., Ltd.) was pipetted into each well and the plate was allowed to stand at 25° C. for 18 to 20 hours whereby blocking was completed.
After the plate was washed with a wash solution (0.15M NaCl containing 0.1% Tween 20) 5 times, 50 μl of a diluted standard antigen solution or sample, 50 μl of the labeled antigen solution and 100 μl of the antibody solution were added to each well. The culture was incubated at 4° C. for 18 to 20 hours. The plate was washed 3 times with 0.3 ml of the wash solution, and then 0.1 ml of a streptavidin-horseradish peroxidase conjugate (×2500) was added. After incubation at room temperature for 1.5 hours, the plate was washed with 0.3 ml of the wash solution 4 times and then a tetramethyl benzidine-containing colorant (0.1 ml, product of Sigma) was added. After 30 minutes of coloring, 2N sulfuric acid was added to stop the reaction. Absorbance at 450 nm was measured.
A standard curve for diethyl phthalate was obtained from the results of the diluted standard antigen solutions (FIG. 1). In FIG. 1, the ordinate denotes absorbance (at 450 nm) and the abscissa denotes standard antigen concentration (ng/ml).
The cross-reactivity of the antibody of the invention with diethyl phthalate and structurally similar compounds was tested using the ELISA system described in Example 5.
Cross-reactivity (%) is defined as the molar concentration of each test antigen, relative to the concentration of diethyl phthalate (calculated as 100%), at B/B0=50.

antiserum RY850 = experiment: ELISA for benzyl n-butyl phthalate and cross-reactivity test; details: ELISA system for benzyl n-butyl phthalate
Experimental: An ELISA system of the invention for benzyl n-butyl phthalate was designed in a manner similar to that of Example 5, using benzyl n-butyl phthalate (product of Kanto Chemical Co., Inc.) as a standard antigen, using biotin-Arg-Lys-aminocapronyl-4-(or 5-)amino-benzyl n-butyl phthalate of Example 2 (2-6) as a labeled antigen and using antiserum RY850 (10,000-fold diluted) as an antiserum. The antiserum RY850 was prepared as in Example 4, but the aminocapronyl-4-(or 5-)amino-benzyl n-butyl phthalate of Example 2 (2-5) was used in place of aminocapronyl-4-amino-diethyl phthalate.
A standard curve for benzyl n-butyl phthalate was obtained (FIG. 2). In FIG. 2, the ordinate denotes absorbance (at 492 nm) and the abscissa denotes standard antigen concentration (ng/ml).
The cross-reactivity of the antibody of the invention with benzyl n-butyl phthalate and structurally similar compounds was determined using the ELISA system described in Example 8.

antiserum RY849 = experiment: ELISA for di-n-butyl phthalate and cross-reactivity test; details: ELISA system for di-n-butyl phthalate
Experimental: An ELISA system of the invention for di-n-butyl phthalate was designed in a manner similar to that of Example 5, using di-n-butyl phthalate (product of Wako Pure Chemical Industries, Inc.) as a standard antigen, using biotin-Arg-Lys-aminocapronyl-4-amino-di-n-butyl phthalate of Example 2 (2-4) as a labeled antigen and using antiserum RY849 (10,000-fold diluted) as an antiserum. The antiserum RY849 was prepared as in Example 4, but the aminocapronyl-4-amino-di-n-butyl phthalate of Example 2 (2-3) was used in place of aminocapronyl-4-amino-diethyl phthalate of Example 4.
A standard curve for di-n-butyl phthalate was obtained (FIG. 3).
The cross-reactivity of the antibody of the invention with di-n-butyl phthalate and structurally similar substances was determined using the ELISA system described in Example 10.

Compound	Cross-reactivity [1]	Cross-reactivity (antiserum RY849)	IC50 [1]	further results
O=C(O)c1ccccc1 [Benzoic acid]	<0.001%	–	–	Cross-reactivity ([1]; listed as benzoic acid): less than 0.001%
nonylphenol	–	3.4%	–	Cross-reactivity (antiserum RY850): 2.3%
CCOC=O [Ethyl formate]	0.018%	–	3.001226 µg/mL	–
CCCCC(CC)COC(=O)c1ccccc1C(=O)OCC(CC)CCCC (stereo not shown) [Di(2-ethylhexyl)phtalate]	<0.001%	–	–	–
COC(=O)c1ccccc1C(=O)OC [Dimethyl phthalate]	0.556%	1.2%	0.098178 µg/mL (≈ 0.506 µM)	Cross-reactivity ([1]; listed as dimethyl phthalate): about 0.56%
C/C(=C(/C)c1ccc(O)cc1)c1ccc(O)cc1 [Dimethyl stilbestrol]	<0.001%	–	–	Cross-reactivity ([1]; listed as dimethyl stilbestrol): does not show substantial cross-reactivity
CCCCOC(=O)c1ccccc1C(=O)OCCCC [Dibutyl phthalate]	0.014%	–	3.893432 µg/mL (≈ 14 µM)	Cross-reactivity (antiserum RY850): 38.9%; Cross-reactivity ([1]; listed as dibutyl phthalate): about 0.01%
CCOC(C)=O [Ethyl acetate]	0.012%	–	4.480033 µg/mL	–
CC/C(=C(/CC)c1ccc(O)cc1)c1ccc(O)cc1 [diethyl stilbestrol]	–	1.5%	–	–
CCOC(=O)c1ccccc1 [Ethyl benzoate]	0.012%	–	4.391316 µg/mL (≈ 29.2 µM)	–
O=C(O)c1ccccc1C(=O)O [Phthalic acid]	<0.001%	–	–	–
CCOC(=O)c1ccccc1C(=O)OCC [Diethyl phthalate]	100%	4%	0.000546 µg/mL (≈ 0.00246 µM)	Cross-reactivity ([1]; listed as diethyl phthalate): high reactivity
CCCCOC(=O)c1ccccc1C(=O)OCc1ccccc1 [benzyl n-butyl phthalate]	–	100%	–	–

— patent US6399318B1, “Immunoassay for phthalic acid esters” (Otsuka Pharmaceutical Co., Ltd., priority 2000, dated 2002)
